# According to patent US7504203B2 (priority 2002, dated 2009):
# Target: GST-fused SCDH enzyme expressed from the standard strain cDNA (Pyricularia oryzae, UniProt P56221)
# Format: biochemical, rice blast fungus (Pyricularia oryzae)
# GST-fused SCDH enzyme expressed from the standard strain cDNA, sequence (P56221 whole entry, looked up, the tested form may be a part): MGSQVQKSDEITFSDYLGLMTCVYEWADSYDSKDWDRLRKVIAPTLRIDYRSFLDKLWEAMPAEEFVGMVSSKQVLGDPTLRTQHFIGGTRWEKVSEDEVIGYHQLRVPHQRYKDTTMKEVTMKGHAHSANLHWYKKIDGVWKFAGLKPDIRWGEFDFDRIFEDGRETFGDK
structure (smiles),measurement,value
CCC1(C(=O)N[C@H](C)c2ccc(Cl)cc2)C(C)C1(Cl)Cl (stereo partly shown) [carpropamid],drug sensitivity compared with SCDH enzyme in crude enzyme solution from rice blast fungus,exhibited the same drug sensitivity
